Measurements taken from patent US20230322723A1, “COMPOUNDS FOR SUPPRESSING EGFR MUTANT CANCER AND PHARMACEUTICAL USE THEREOF” (J2H BIOTECH INC., priority 2020, published 2023).

Assays:
EGFR^L858R+T790M+C797S = target: T1, EGFR^L858R+T790M+C797S (Homo sapiens, UniProt P00533, C797S/L858R/T790M); test: EGFR protein degradation test (Western blot) in Ba/F3 cells expressing mutant EGFR L858R+T790M+C797S (LTC); format: cell-based; conditions: compounds at 0.1 μM and 1 μM, 24 hours, Western blot with EGFR antibody
T1 construct: expressed in transfected cells; host or cells: Ba/F3
Procedure, shortened: (§1)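 EGFR protein level was measured by Western blot on 30 μg lysate, bands quantified by imager. Lysates came from Ba/F3 lines carrying normal, LTC or DTC mutant EGFR, exposed 24 h to compound at 0.1 and 1 μM.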

[1] = Pharmacokinetic evaluation after single oral administration to ICR mice; format: in vivo; conditions: mouse, ICR mice, single oral dose 5 mg/kg, plasma; for AUC(0-t): read-out: AUC0-24
Method: Pharmacokinetic tests for the compounds of the present invention were conducted as below. After a single oral administration of the compound of the present invention to ICR mice, the concentration of the compound over time was followed up and analyzed.
The compound of the present invention was suspended in 10% DMSO/90% (30% HPbCD aqueous solution) and orally administered to mice at a dose of 5 mg/kg. Blood was collected at a fixed time and plasma was separated. Drug analysis was performed using HPLC (XBridge column C18, Waters, mobile phase 0.1% formic acid:acetonitrile (30:70, %/%)) and MS/MS (ESI positive, MRM). Mouse blood plasma and each commercially available standard solution were mixed at a ratio of 9:1 to prepare and calibrate at concentrations of […] 5,000 ng/mL. In addition, the preparation of QC samples was prepared by mixing the mouse blood plasma and the standard solution for QC at a ratio of 9:1, and prepared to be concentrations of 100, 750 and 2,500 ng/mL. 100 μL of the plasma sample was transferred to a centrifugation tube, and 10 μL of the internal standard solution and 300 μL of methanol were added, followed by mixing for about 30 seconds for pretreatment. The tube was centrifuged at 3,000×g (4° C.) for about 5 minutes, and the supernatant was taken and transferred to an LC vial and injected into the instrument. Then, the concentration of the compound in mouse plasma was quantified by applying a previously validated assay. For pharmacokinetic parameters, the program WinNonlin 5.2 (Pharsight, USA) was used. AUC0-t, AUC0-∞, Cmax, Tmax, and t1/2 were calculated by Noncompartment modeling (best fit). The pharmacokinetic parameter results were expressed as the mean (Mean) and standard deviation (SD), and were statistically processed using the SPSS program (Statistical Package for the Social Sciences, 10.0K, USA).

EGFR^del19+T790M+C797S = test: EGFR protein degradation test (Western blot) in Ba/F3 cells expressing mutant EGFR del19+T790M+C797S (DTC); format: cell-based; conditions: compounds at 0.1 μM and 1 μM, 24 hours, Western blot with EGFR antibody
Procedure, shortened: as §1

T1 sequence (P00533 25-1210 T790M/C797S/L858R): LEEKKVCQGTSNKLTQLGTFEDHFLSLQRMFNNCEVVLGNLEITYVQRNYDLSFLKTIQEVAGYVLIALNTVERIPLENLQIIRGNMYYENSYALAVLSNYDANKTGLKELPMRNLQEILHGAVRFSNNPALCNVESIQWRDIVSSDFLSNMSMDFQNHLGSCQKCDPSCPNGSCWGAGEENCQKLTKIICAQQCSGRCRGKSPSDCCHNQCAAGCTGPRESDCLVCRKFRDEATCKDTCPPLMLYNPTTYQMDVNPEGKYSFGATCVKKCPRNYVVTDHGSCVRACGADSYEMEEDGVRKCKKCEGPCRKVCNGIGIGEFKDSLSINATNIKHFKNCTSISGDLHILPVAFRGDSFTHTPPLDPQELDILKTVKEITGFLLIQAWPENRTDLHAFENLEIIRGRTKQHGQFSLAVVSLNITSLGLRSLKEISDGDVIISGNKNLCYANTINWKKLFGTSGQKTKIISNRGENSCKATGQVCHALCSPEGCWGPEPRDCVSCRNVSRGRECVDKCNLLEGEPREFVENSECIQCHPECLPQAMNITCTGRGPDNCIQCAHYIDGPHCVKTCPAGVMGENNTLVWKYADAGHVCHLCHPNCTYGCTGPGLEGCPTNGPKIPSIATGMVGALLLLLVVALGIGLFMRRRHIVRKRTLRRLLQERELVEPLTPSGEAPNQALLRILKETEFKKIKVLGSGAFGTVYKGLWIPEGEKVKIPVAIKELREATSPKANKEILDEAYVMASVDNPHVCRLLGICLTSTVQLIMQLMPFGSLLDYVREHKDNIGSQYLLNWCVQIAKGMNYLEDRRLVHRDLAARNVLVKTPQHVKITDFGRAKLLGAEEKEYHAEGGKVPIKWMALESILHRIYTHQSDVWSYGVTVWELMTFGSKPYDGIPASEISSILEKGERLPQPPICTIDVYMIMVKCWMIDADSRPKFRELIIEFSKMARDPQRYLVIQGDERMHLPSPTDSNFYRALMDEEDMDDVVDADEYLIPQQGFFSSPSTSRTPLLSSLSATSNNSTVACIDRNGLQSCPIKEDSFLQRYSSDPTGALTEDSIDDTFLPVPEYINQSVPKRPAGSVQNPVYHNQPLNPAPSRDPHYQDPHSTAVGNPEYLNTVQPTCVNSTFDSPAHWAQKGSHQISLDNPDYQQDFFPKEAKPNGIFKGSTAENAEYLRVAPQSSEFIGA

SMILES | LTC (EGFR^L858R+T790M+C797S) protein degradation (EGFR^L858R+T790M+C797S) | half-life [1] [h] | AUC(0-t) [1] [ng·h/mL] | DTC (EGFR^del19+T790M+C797S) protein degradation (EGFR^del19+T790M+C797S)
COc1cc(N2CCC(CN3CCN(CC(=O)N[C@H](C(=O)N4C[C@H](O)CC4C(=O)NCc4ccc(-c5scnc5C)cc4)C(C)(C)C)CC3)CC2)ccc1Nc1ncc(Cl)c(Nc2ccccc2N(C)S(C)(=O)=O)n1 (stereo in doubt) [Compound 27, (2R,4R)-1-((S)-2-(2-(4-((1-(4-((5-chloro-4-((2-(N-methylmethylsulfonamido)phenyl)amino)pyrimidin-2-yl)amino)-3-methoxyphenyl)piperidin-4-yl)methyl)piperazin-1-yl)acetamido)-3,3-dimethylbutanoyl)-4-hydroxy-N-(4-(4-methylthiazol-5-yl)benzyl)pyrrolidin-2-carboxamide] | ++ (Protein degradation > 80%) | 8.89 | 68 | ++ (Protein degradation > 80%)
COc1cc(N2CCN(CC3CCN(CC(=O)N[C@H](C(=O)N4C[C@H](O)CC4C(=O)NCc4ccc(-c5scnc5C)cc4)C(C)(C)C)CC3)CC2)ccc1Nc1ncc(Cl)c(Nc2ccccc2N(C)S(C)(=O)=O)n1 (stereo in doubt) [Compound 28, (2R,4R)-1-((S)-2-(2-(4-((4-(4-((5-chloro-4-((2-(N-methylmethylsulfonamido)phenyl)amino)pyrimidin-2-yl)amino)-3-methoxyphenyl)piperazin-1-yl)methyl)piperidin-1-yl)acetamido)-3,3-dimethylbutanoyl)-4-hydroxy-N-(4-(4-methylthiazol-5-yl)benzyl)pyrrolidin-2-carboxamide] | ++ (Protein degradation > 80%) | 6.23 | 1170 | ++ (Protein degradation > 80%)
COc1cc(N2CCC(N3CCN(CC(=O)N[C@H](C(=O)N4C[C@H](O)C[C@@H]4C(=O)NCc4ccc(-c5scnc5C)cc4)C(C)(C)C)CC3)CC2)ccc1Nc1ncc(Cl)c(Nc2ccccc2N(C)S(C)(=O)=O)n1 [Compound 11, (2R,4R)-1-((S)-2-(2-(4-(1-(4-((5-chloro-4-((2-(N-methylmethylsulfonamido)phenyl)amino)pyrimidin-2-yl)amino)-3-methoxyphenyl)piperidin-4-yl)piperazin-1-yl)acetamido)-3,3-dimethylbutanoyl)-4-hydroxy-N-(4-(4-methylthiazol-5-yl)benzyl)pyrrolidin-2-carboxamide] | ++ (Protein degradation > 80%) | 6.54 | 553 | ++ (Protein degradation > 80%)
COc1cc(N2CCC(N3CCN(CCC(=O)N[C@H](C(=O)N4C[C@H](O)C[C@@H]4C(=O)NCc4ccc(-c5scnc5C)cc4)C(C)(C)C)CC3)CC2)ccc1Nc1ncc(Cl)c(Nc2ccccc2N(C)S(C)(=O)=O)n1 [Compound 20, (2R,4R)-1-((S)-2-(3-(4-(1-(4-((5-chloro-4-((2-(N-methylmethylsulfonamido)phenyl)amino)pyrimidin-2-yl)amino)-3-methoxyphenyl)piperidin-4-yl)piperazin-1-yl)propanamido)-3,3-dimethylbutanoyl)-4-hydroxy-N-(4-(4-methylthiazol-5-yl)benzyl)pyrrolidin-2-carboxamide] | ++ (Protein degradation > 80%) | 8.99 | 42 | ++ (Protein degradation > 80%)
COc1cc(N2CCC(N3CCN(CC(=O)Nc4cccc5c4CN(C4CCC(=O)NC4=O)C5=O)CC3)CC2)ccc1Nc1ncc(Cl)c(Nc2ccccc2N(C)S(C)(=O)=O)n1 (centres unmarked) [Compound 22, 2-(4-(1-(4-((5-chloro-4-((2-(N-methylmethylsulfonamido)phenyl)amino)pyrimidin-2-yl)amino)-3-methoxyphenyl)piperidin-4-yl)piperazin-1-yl)-N-(2-(2,6-dioxopiperidin-3-yl)-1-oxoisoindolin-4-yl)acetamide] | ++ (Protein degradation > 80%) | 12.4 | 47 | ++ (Protein degradation > 80%)
COc1cc(N2CCC(CN3CCN(CC(=O)Nc4cccc5c4CN(C4CCC(=O)NC4=O)C5=O)CC3)CC2)ccc1Nc1ncc(Cl)c(Nc2ccccc2N(C)S(C)(=O)=O)n1 (centres unmarked) [Compound 24, 2-(4-((1-(4-((5-chloro-4-((2-(N-methylmethylsulfonamido)phenyl)amino)pyrimidin-2-yl)amino)-3-methoxyphenyl)piperidin-4-yl)methyl)piperazin-1-yl)-N-(2-(2,6-dioxopiperidin-3-yl)-1-oxoisoindolin-4-yl)acetamide] | ++ (Protein degradation > 80%) | 12.4 | 17 | ++ (Protein degradation > 80%)
COc1cc(N2CCN(CC3CCN(CC(=O)Nc4cccc5c4CN(C4CCC(=O)NC4=O)C5=O)CC3)CC2)ccc1Nc1ncc(Cl)c(Nc2ccccc2N(C)S(C)(=O)=O)n1 (centres unmarked) [Compound 26, 2-(4-((4-(4-((5-chloro-4-((2-(N-methylmethylsulfonamido)phenyl)amino)pyrimidin-2-yl)amino)-3-methoxyphenyl)piperazin-1-yl)methyl)piperidin-1-yl)-N-(2-(2,6-dioxopiperidin-3-yl)-1-oxoisoindolin-4-yl)acetamide] | ++ (Protein degradation > 80%) | 9.29 | 32 | ++ (Protein degradation > 80%)
COc1cc(N2CCN(CC3CCN(C(=O)CNc4ccc5c(c4)C(=O)N(C4CCC(=O)NC4=O)C5=O)CC3)CC2)ccc1Nc1ncc(Cl)c(Nc2ccccc2N(C)S(C)(=O)=O)n1 (centres unmarked) [Compound 66, N-(2-((5-chloro-2-((4-(4-((1-((2-(2,6-dioxopiperidin-3-yl)-1,3-dioxoisoindolin-5-yl)glycyl)piperidin-4-yl)methyl)piperazin-1-yl)-2-methoxyphenyl)amino)pyrimidin-4-yl)amino)phenyl)-N-methylmethanesulfonamide] | ++ (Protein degradation > 80%) | – | – | ++ (Protein degradation > 80%)
COc1cc(N2CCC(CN3CCN(c4ccc5c(c4)C(=O)N(C4CCC(=O)NC4=O)C5=O)CC3)CC2)ccc1Nc1ncc(Cl)c(Nc2ccccc2N(C)S(C)(=O)=O)n1 (centres unmarked) [Compound 67, N-(2-((5-chloro-2-((4-(4-((4-(2-(2,6-dioxopiperidin-3-yl)-1,3-dioxoisoindolin-5-yl)piperazin-1-yl)methyl)piperidin-1-yl)-2-methoxyphenyl)amino)pyrimidin-4-yl)amino)phenyl)-N-methylmethanesulfonamide] | ++ (Protein degradation > 80%) | – | – | − (Protein degradation < 20%)
COc1cc(N2CCN(CC3CCN(c4ccc5c(c4)C(=O)N(C4CCC(=O)NC4=O)C5=O)CC3)CC2)ccc1Nc1ncc(Cl)c(Nc2ccccc2N(C)S(C)(=O)=O)n1 (centres unmarked) [Compound 68] | ++ (Protein degradation > 80%) | – | – | + (Protein degradation 20~80%)
COc1cc(N2CCC(N3CCN(CC#Cc4ccc5c(c4)C(=O)N(C4CCC(=O)NC4=O)C5=O)CC3)CC2)ccc1Nc1ncc(Cl)c(Nc2ccccc2N(C)S(C)(=O)=O)n1 (centres unmarked) [Compound 72, N-(2-((5-chloro-2-((4-(4-(4-(3-(2-(2,6-dioxopiperidin-3-yl)-1,3-dioxoisoindolin-5-yl)prop-2-yn-1-yl)piperazin-1-yl)piperidin-1-yl)-2-methoxyphenyl)amino)pyrimidin-4-yl)amino)phenyl)-N-methylmethanesulfonamide] | − (Protein degradation < 20%) | – | – | − (Protein degradation < 20%)
COc1cc(N2CCN(CC#Cc3ccc4c(c3)C(=O)N(C3CCC(=O)NC3=O)C4=O)CC2)ccc1Nc1ncc(Cl)c(Nc2ccccc2N(C)S(C)(=O)=O)n1 (centres unmarked) [Compound 73, N-(2-((5-chloro-2-((4-(4-(3-(2-(2,6-dioxopiperidin-3-yl)-1,3-dioxoisoindolin-5-yl)prop-2-yn-1-yl)piperazin-1-yl)-2-methoxyphenyl)amino)pyrimidin-4-yl)amino)phenyl)-N-methylmethanesulfonamide] | − (Protein degradation < 20%) | – | – | − (Protein degradation < 20%)
